Where a name gives a salt, the structure may show the parent alone. Read-outs that look alike come from different tables or passages of the source.
Legend:
aphthous ulcers = conditions: background, cited from earlier work; for efficacy of prior treatment: aphthous ulcers/stomatitis
[1] = Concentration at the ulcer assuming the troche dissolves in 0.1 ml of saliva; conditions: assuming troche dissolved in 0.1 ml saliva
Protocol: Application of the penicillin/magnesium stearate troches in the aforementioned manner created a supratherapeutic concentration of penicillin on the raw surface of the aphthous ulcer. Assuming that the troche is dissolved in 0.1 ml of saliva locally at the ulcer, the initial concentration of penicillin would reach up to 500 mg/ml, and that of magnesium stearate 10 mg/ml. Under the influence of this extraordinarily high concentration of penicillin G or penicillin V, most microorganisms of the normal flora cannot survive or continue to multiply, permitting tissue regeneration processes to occur under the protective barrier coating formed by the magnesium stearate.
When the oxytetracycline hydrochloride/magnesium stearate troches are applied in the manner described in Example 1, extraordinarily high concentrations of antibiotic were released on the raw surface of the treated ulcers. Assuming that the troche is dissolved in 0.1 ml of saliva, the peak concentration of oxytetracycline would be between about 400-800 mg/ml locally at the site of the ulcer, and that of magnesium stearate 10 mg/ml.

[2] = Local peak and one-hour trough antibiotic concentration in loculated saliva at the site of the troche (microbiological dilution assay); assay type: in vivo, human; conditions: 50 mg troche; for local trough concentration of penicillin in saliva: end of one-hour duration
[3] = system: Staphylococcus aureus (ATCC 29213); test: Minimum inhibitory concentration against the standard strain by serial two-fold dilution in nutrient broth; assay type: cell-based
Protocol: For determination of the peak concentration, 1 ml of the bacteria-free filtrate was further diluted with 9 ml of nutrient broth to achieve a 1:10,000 dilution of the saliva. Then a serial two-fold dilution was made of this 1:10,000 diluted saliva sample with an equal volume of nutrient broth in a roll of test tubes to obtain a series of 1 ml aliquots of nutrient broth in which the saliva was diluted to 20,000, 40,000, 80,000, 160,000, 320,000, 640,000, 1,280,000 and 2,560,000 folds respectively. […] Thus the final dilutions of the saliva sample were in the range of 40,000 to 5,120,000 folds.
As control standards, a series of test tubes containing 1 ml of nutrient broth with varying concentrations of penicillin G potassium salt ranging from 0.1 units to 10 units/ml were similarly mixed with an equal volume of nutrient broth freshly inoculated with the standard tubes of Staphylococcus aureus. Both the test and control standard tubes were incubated at 37° C. for 18 hours. Among the test tubes showing no gross evidence of bacterial growth, the one containing the highest dilution of saliva and the one containing the least amount of penicillin G were considered as having the identical concentration of penicillin, i.e. the MIC of the staphylococcus aureus.

Gram-negative bacilli = conditions: cited from earlier work
[4] = single intravenous injection of penicillin G, usually 500 mg; cited from earlier work
[5] = system: Patients with aphthous ulcers; test: Topical treatment of patients with aphthous ulcers; assay type: in vivo, human
Protocol: Patients with aphthous ulcers were advised to brush their teeth to rid them of food residues, and to rinse their mouths with water prior to initiating treatment.
One penicillin/magnesium stearate troche was placed in the patients' mouths directly over the ulcerated lesion. The troche was dissolved or disintegrated in a minimum amount of saliva directly over the ulcer in no more than 15 minutes, preferably in about 8 to about 12 minutes. The patients were advised to keep the ingredients of the disintegrated troche at the site of the lesion as long as possible. Food and beverages were avoided for one hour after each treatment. If multiple aphthous ulcers were present, one troche was required for the treatment of each ulcer. The topical treatments were conducted 4 times daily, for example, after breakfast, after lunch, after dinner and before bed time for no more than 4 days. […] The burning sensation lessened with subsequent applications.
For instance, the first sign of healing is usually the fading of the hyperemic zone at the periphery of the ulcer and the lessening of edema at the base of the ulcer. The membrane covering the ulcer becomes thinner, more translucent, more pearly white instead of a grayish-yellowish white prior to the application and contract with the troche. […]

[6] = system: Staphylococcus aureus (ATCC 29213); conditions: ATCC 29213, known range; cited from earlier work

Molecule: O=C1CCC(N2C(=O)c3ccccc3C2=O)C(=O)N1 (stereo not shown) [Thalidomide]
- efficacy of prior treatment (aphthous ulcers): effective in some HIV-infected patients
- adverse reactions of prior treatment (aphthous ulcers): teratogenic

Molecule: CCCCCCCCCCCCCCCCCC(=O)O [magnesium stearate]
- concentration of magnesium stearate at the ulcer [1]: 10000 µg/mL

Molecule: CN(C)[C@@H]1C(=O)C(C(N)=O)=C(O)[C@@]2(O)C(=O)C3=C(O)c4c(O)cccc4[C@@](C)(O)[C@H]3[C@H](O)[C@@H]12 [oxytetracycline hydrochloride, Oxytetracycline hydrochloride]
- one-hour trough concentration of oxytetracycline hydrochloride in saliva ([2]; two subjects, 60 min): 8 mg/mL
- Cmax ([2]; human, in vivo, topical or ocular, 50 mg, two subjects, read-out: initial peak concentration of oxytetracycline hydrochloride in saliva): 400000 µg/mL
- concentration at 1 h ([2]; human, in vivo, topical or ocular, two subjects, read-out: one-hour trough concentration of oxytetracycline hydrochloride in saliva): 8000 µg/mL
- MIC ([3]; Staphylococcus aureus, ATCC29213, ATCC 29213, read-out: sensitivity to oxytetracycline hydrochloride, MIC): 1 µg/mL
- initial/peak concentration of antibiotic at the ulcer [1]: 400 to 800 mg/mL

Molecule: CC1(C)S[C@@H]2[C@H](NC(=O)Cc3ccccc3)C(=O)N2[C@H]1C(=O)O [penicillin G]
- susceptibility of many Gram-negative bacilli (Salmonella, Shigella, most Escherichia coli, all Proteus mirabilis, most Bacteroides strains) (Gram-negative bacilli; 740 mcg/ml as cut-off MIC): sensitive
- susceptibility of Gram-negative bacilli (Gram-negative bacilli; at 16 mcg/ml): resistant
- average peak blood level [4]: about 26 units/ml
- local trough concentration of penicillin in saliva [2]: 4,000-64,000 units/ml
- local trough concentration of penicillin in saliva ([2]; 60 min): 2.5 to 40 mg/mL
- Cmax ([2]; human, in vivo, topical or ocular, at complete dissolution, read-out: initial peak local concentration of penicillin G in saliva): 500000 µg/mL
- MIC of penicillin G for the standard strain of Staphylococcus aureus ([3]; three experiments, 37° C., 18 hours): 1 unit/ml

Molecule: CC1(C)S[C@@H]2[C@H](NC(=O)Cc3ccccc3)C(=O)N2[C@H]1C(=O)O [penicillin]
- adverse reactions of stomatitis or discoloration of the tongue ([5]; 4 days of penicillin medication): no observed adverse reactions
- status of ulcer after 4 days of medication ([5]; after 4 days): only remnants of a thin pearly whitish membrane remain, if any, covering an incompletely re-epithelialized newly healed ulcer
- known minimum inhibitory concentration (MIC) of the standard strain [6]: 0.25-2 units of penicillin/ml
- efficacy of prior treatment (aphthous ulcers): ineffective
- adverse reactions of prior treatment (aphthous ulcers): likely to produce hypersensitivity

Molecule: O=S(=O)([O-])[O-].[Zn+2] [zinc sulfate]
- efficacy of prior treatment (aphthous ulcers): responded

Molecule: aluminum subsalt of sucrose-8-sulfate [sucralfate]
- efficacy of prior treatment (aphthous ulcers): responded

Reference: patent US5981499A, “Lesion-directed antibiotics in dry dosage forms for the treatment of shallow ulcers of the oral mucosa” (Atlantic Biomed Corporation, priority 1998, dated 1999)
